Assay results: patent publication US12186283B2, “Bismuth-thiol compositions and methods of use” (Microbion Corporation, priority 2018, dated 2025)
In brackets after ≈: the same amount, converted by molar mass.

Assays:
S. aureus ATCC 29213 [1] = test: Broth microdilution MIC, ATCC QC organism (Example 12); type: cell-based, Staphylococcus aureus; settings: S. aureus ATCC 29213, QC organism
Description: The in vitro activity of BisEDT and two additional bismuth-thiol investigational agents (MB-2B and MB-6) was determined for isolates of Escherichia coli, Klebsiella pneumoniae, Pseudomonas aeruginosa and Acinetobacter baumannii characterized for extended-spectrum β-lactamases (ESBL) and/or carbapenem resistance. In addition, vancomycin-intermediate Staphylococcus aureus (VISA) were evaluated. The majority of the isolates tested in the current study were multidrug-resistant (MDR) as defined by resistance to at least three different antibiotic classes. Susceptibility to the investigational compounds and relevant comparators was determined by broth microdilution conducted in accordance with guidelines from the Clinical and Laboratory Standards Institute (CLSI; 2,3).

S. aureus ATCC 29213 [2] = settings: S. aureus ATCC 29213, QC organism; cited from earlier work
[3] = system: vancomycin-intermediate Staphylococcus aureus (VISA); test: Broth microdilution MIC (Example 12)

## CCCCCCCCCC(=O)NC(Cc1c[nH]c2ccccc12)C(=O)NC(CC(N)=O)C(=O)NC(CC(=O)O)C(=O)NC1C(=O)NCC(=O)NC(CCCN)C(=O)NC(CC(=O)O)C(=O)NC(C)C(=O)NC(CC(=O)O)C(=O)NCC(=O)NC(CO)C(=O)NC(C(C)CC(=O)O)C(=O)NC(CC(=O)c2ccccc2N)C(=O)OC1C (centres unmarked) [DAP]
S. aureus ATCC 29213 [1]
  MIC: 0.5 µg/mL (≈ 0.309 µM)
S. aureus ATCC 29213 [2]
  MIC, QC range: (0.12-1) μg/mL
[3]; Staphylococcus aureus NRS 1 (hVISA)
  MIC: 1 µg/mL (≈ 0.617 µM)
[3]; Staphylococcus aureus NRS 2
  MIC: 0.25 µg/mL (≈ 0.154 µM)
[3]; Staphylococcus aureus NRS 3
  MIC: 1 µg/mL (≈ 0.617 µM)
[3]; Staphylococcus aureus NRS 4
  MIC: 0.5 µg/mL (≈ 0.309 µM)
[3]; Staphylococcus aureus NRS 13
  MIC: 2 µg/mL (≈ 1.23 µM)
[3]; Staphylococcus aureus NRS 18
  MIC: 0.5 µg/mL (≈ 0.309 µM)
[3]; Staphylococcus aureus NRS 22
  MIC: 2 µg/mL (≈ 1.23 µM)
[3]; Staphylococcus aureus NRS 24 (hVISA)
  MIC: 0.5 µg/mL (≈ 0.309 µM)
[3]; Staphylococcus aureus NRS 27
  MIC: 0.25 µg/mL (≈ 0.154 µM)
